Results: US8791132B2, “Compounds and methods for treatment of hypertension” (Medivation Technologies, Inc., priority 2011, dated 2014)
Where “and” joins values, the source holds several entries; their conditions need not be identical. Identical values can stand only once. Like-named read-outs stand apart in the source and are kept apart here.

Tests used:
[1] = target: T1, human recombinant adrenergic α2B receptor (Homo sapiens, UniProt P18089); assay: Radioligand binding, adrenergic α2B ([3H]Rauwolscine); conditions: for inhibition at 0.03 µM / inhibition at 0.1 µM: [3H]Rauwolscine
T1 construct: expressed in transfected cells; host or cells: CHO-K1
T1 sequence (P18089 1-450): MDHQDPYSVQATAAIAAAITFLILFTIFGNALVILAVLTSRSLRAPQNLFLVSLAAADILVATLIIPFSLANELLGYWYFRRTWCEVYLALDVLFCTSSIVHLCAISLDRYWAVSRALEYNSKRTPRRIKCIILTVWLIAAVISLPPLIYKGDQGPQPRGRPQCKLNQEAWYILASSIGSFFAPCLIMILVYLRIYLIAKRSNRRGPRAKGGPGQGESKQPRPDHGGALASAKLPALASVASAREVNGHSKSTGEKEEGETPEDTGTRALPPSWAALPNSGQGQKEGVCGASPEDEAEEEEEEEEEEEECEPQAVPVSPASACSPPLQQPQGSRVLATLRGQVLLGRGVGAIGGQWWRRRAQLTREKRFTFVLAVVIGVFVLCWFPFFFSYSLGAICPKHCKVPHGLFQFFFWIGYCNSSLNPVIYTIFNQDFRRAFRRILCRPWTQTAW
Method in brief: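 Membranes from CHO-K1 cells expressing human recombinant α2B, in 50 mM Tris-HCl pH 7.4, 12.5 mM MgCl2, 1 mM EDTA, 0.2% BSA, incubated with compound and 2.5 nM [3H]Rauwolscine, 60 min, 25 °C.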

[2] = target: T2, human recombinant adrenergic α2A receptor (Homo sapiens, UniProt P08913); assay: Radioligand binding, adrenergic α2A ([3H]MK-912); conditions: for Percentage inhibition of ligand binding, Adrenergic α2A: 0.1 µM; for inhibition at 0.03 µM: read-out: Percentage inhibition of ligand binding, Adrenergic α2A (0.03 μM), compound at 0.03 μM
T2 construct: expressed in transfected cells; host or cells: insect Sf9 cells
T2 sequence (P08913 1-465): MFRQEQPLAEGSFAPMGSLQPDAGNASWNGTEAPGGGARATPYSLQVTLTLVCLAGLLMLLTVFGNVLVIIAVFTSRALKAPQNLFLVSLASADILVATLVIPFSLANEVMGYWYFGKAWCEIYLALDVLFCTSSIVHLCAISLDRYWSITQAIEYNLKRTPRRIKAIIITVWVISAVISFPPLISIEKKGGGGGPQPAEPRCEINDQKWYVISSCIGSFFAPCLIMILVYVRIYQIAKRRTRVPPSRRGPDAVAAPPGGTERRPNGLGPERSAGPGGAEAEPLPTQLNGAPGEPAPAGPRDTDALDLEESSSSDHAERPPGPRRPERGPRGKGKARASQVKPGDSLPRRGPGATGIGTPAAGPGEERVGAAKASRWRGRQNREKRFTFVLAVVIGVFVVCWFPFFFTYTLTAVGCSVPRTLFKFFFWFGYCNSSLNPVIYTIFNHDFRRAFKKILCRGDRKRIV
Method in brief: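 Receptor expressed in insect Sf9 cells, assayed in 50 mM Tris-HCl pH 7.4 with 12.5 mM MgCl2 and 2 mM EDTA. Compounds incubated with 1 nM [3H]MK-912 for 60 min at 25 °C; nonspecific binding defined with 10 μM WB-4101. Filter-bound radioactivity counted; values are percent inhibition of specific binding.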

[3] = target: T3, rat adrenergic α1B receptor (Rattus norvegicus, UniProt P15823); assay: Radioligand binding, adrenergic α1B ([3H]Prazosin)
T3 construct: rat adrenergic α1B receptor obtained from Wistar Rat liver; from tissue; host or cells: Wistar rat liver
T3 sequence (P15823 1-515): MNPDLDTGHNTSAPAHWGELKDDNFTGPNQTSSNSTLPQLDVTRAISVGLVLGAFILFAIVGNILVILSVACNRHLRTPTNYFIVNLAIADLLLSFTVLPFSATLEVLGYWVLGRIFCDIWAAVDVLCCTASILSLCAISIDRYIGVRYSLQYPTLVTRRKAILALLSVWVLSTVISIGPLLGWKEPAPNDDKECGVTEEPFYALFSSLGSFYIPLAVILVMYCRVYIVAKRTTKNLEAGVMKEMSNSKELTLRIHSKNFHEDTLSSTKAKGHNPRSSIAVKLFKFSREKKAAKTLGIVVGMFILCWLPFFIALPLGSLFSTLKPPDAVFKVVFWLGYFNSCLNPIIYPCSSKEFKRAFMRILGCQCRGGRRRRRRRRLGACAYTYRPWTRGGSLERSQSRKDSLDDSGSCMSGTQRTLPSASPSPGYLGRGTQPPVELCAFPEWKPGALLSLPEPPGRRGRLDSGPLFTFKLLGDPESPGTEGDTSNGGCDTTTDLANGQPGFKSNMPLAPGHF
Method in brief: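 Filter binding with Wistar rat liver α1B preparation: test compound plus 0.25 nM [3H]prazosin, 1 h at 25° C in modified Tris-HCl buffer pH 7.4.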

[4] = target: T4, human recombinant adrenergic α1D receptor (Homo sapiens, UniProt P25100); assay: Radioligand binding, adrenergic α1D ([3H]Prazosin)
T4 construct: expressed in transfected cells; host or cells: HEK-293
T4 sequence (P25100 1-572): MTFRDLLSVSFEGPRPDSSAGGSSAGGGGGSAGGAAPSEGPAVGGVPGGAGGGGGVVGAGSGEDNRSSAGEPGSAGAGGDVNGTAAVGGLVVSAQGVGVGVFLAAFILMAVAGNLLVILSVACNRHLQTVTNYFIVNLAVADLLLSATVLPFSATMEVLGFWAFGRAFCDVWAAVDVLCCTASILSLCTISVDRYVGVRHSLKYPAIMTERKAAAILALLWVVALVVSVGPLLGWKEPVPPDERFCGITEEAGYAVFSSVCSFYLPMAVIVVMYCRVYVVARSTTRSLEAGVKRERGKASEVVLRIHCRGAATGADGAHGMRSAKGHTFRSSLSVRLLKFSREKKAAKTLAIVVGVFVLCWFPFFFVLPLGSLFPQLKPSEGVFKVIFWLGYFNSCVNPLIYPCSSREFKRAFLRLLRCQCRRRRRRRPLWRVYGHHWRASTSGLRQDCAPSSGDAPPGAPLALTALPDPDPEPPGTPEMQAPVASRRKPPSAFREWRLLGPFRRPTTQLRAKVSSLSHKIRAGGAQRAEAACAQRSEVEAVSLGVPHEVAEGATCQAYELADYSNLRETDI
Procedure: Compounds were incubated with 0.6 nM [3H]Prazosin for 60 min at 25° C. Non-specific binding was estimated in the presence of 10 μM phentolamine. Receptor proteins were filtered and washed, the filters were then counted to determine [3H]Prazosin specifically bound. […] Biochemical assay results are presented as the percent inhibition of specific binding in Table B1.

[5] = read-out: Percentage inhibition of ligand binding, Adrenergic α1B (0.1 μM), compound at 0.1 μM, [3H]Prazosin, repeat datapoints each shown
[6] = read-out: Percentage inhibition of ligand binding, Adrenergic α1D (0.1 μM), compound at 0.1 μM, [3H]Prazosin, repeat datapoints each shown
[7] = compound at 0.03 μM, repeat assays, each datapoint shown, read-out: Percentage inhibition of ligand binding, Adrenergic α2B
[8] = compound at 0.1 μM, repeat assays, each datapoint shown, read-out: Percentage inhibition of ligand binding, Adrenergic α2B
[9] = compound at 0.1 μM, [3H]Prazosin, repeat assays, each datapoint shown, 0.1 µM
[10] = compound at 0.1 μM, [3H]Prazosin, repeat assays, each datapoint shown, read-out: Percentage inhibition of ligand binding, Adrenergic α1B
[11] = compound at 0.1 μM, [3H]Prazosin, repeat assays, each datapoint shown, read-out: Percentage inhibition of ligand binding, Adrenergic α1D
[12] = [3H]MK-912, repeat datapoints each shown

Structure (SMILES) | inhibition at 0.03 µM [1, 7] | inhibition at 0.1 µM [1, 8] | Percentage inhibition of ligand binding, Adrenergic α1B [3, 9] | inhibition at 0.1 µM [3, 10] | inhibition at 0.1 µM [4, 11] | further results
COc1ccc(C(C)(O)Cn2c3c(c4cc(C)ccc42)CN(C)CC3)cc1 (stereo not shown) [254b] |  |  |  |  |  | Percentage inhibition of ligand binding, Adrenergic α2B ([1]; 0.1 μM compound, 0.1 µM): 79%; Percentage inhibition of ligand binding, Adrenergic α2A ([2]; 0.1 μM compound): 57%; Percentage inhibition of ligand binding, Adrenergic α1B ([3]; 0.1 μM compound, 0.1 µM): 63%; Percentage inhibition of ligand binding, Adrenergic α1D ([4]; 0.1 μM compound, 0.1 µM): 22%
CCC(O)(Cn1c2c(c3cc(Cl)ccc31)CN(C)CC2)c1ccc(F)cc1 (stereo not shown) [II-160] |  |  |  |  |  | inhibition at 0.03 µM ([1]; read-out: Percentage inhibition of ligand binding, Adrenergic α2B (0.03 μM), compound at 0.03 μM, repeat datapoints each shown): 39%; inhibition at 0.1 µM ([1]; read-out: Percentage inhibition of ligand binding, Adrenergic α2B (0.1 μM), compound at 0.1 μM, repeat datapoints each shown): 35%; Percentage inhibition of ligand binding, Adrenergic α1B (0.1 μM) ([3]; compound at 0.1 μM, [3H]Prazosin, repeat datapoints each shown, 0.1 µM): 14%; inhibition at 0.1 µM [3, 5]: 7%; inhibition at 0.1 µM [4, 6]: 15%
Cc1ccc2c(c1)c1c(n2CC(C)(O)c2ccncc2)CCN(C)C1 (stereo not shown) [compound 2] | 75% | 95% | 28% | 27% | 13% | 
Cc1ccc2c(c1)c1c(n2CC(O)c2ccc(F)cc2)CCN(C)C1 (stereo not shown) [compound 30] |  | 91% |  |  | 49% | 
Cc1cnc2c(c1)c1c(n2CCc2ccc(C)nc2)CCN2CCCC12 (stereo not shown) [compound 74, 10-methyl-7-(2-(6-methylpyridin-3-yl)ethyl)-2,3,5,6,7,11c-hexahydro-1H-pyrido[3′,2′:4,5]pyrrolo[2,3-g]indolizine] |  | 104% |  |  | 57% | Percentage inhibition of ligand binding, Adrenergic α2A ([2]; compound at 0.1 μM, [3H]MK-912, repeat assays, each datapoint shown): 6%
Cc1ccc2c(c1)c1c(n2CCc2ccccc2)CCN(C)C1 [compound 200] |  |  |  |  |  | Ki [2]: 1.63 nM and 3.21 nM; inhibition at 0.03 µM [2, 12]: 81%; inhibition at 0.1 µM ([2]; read-out: Percentage inhibition of ligand binding, Adrenergic α2A (0.1 μM), compound at 0.1 μM, [3H]MK-912, repeat datapoints each shown): 92%; inhibition at 0.03 µM ([3]; read-out: Percentage inhibition of ligand binding, Adrenergic α1B (0.03 μM), compound at 0.03 μM, [3H]Prazosin, repeat datapoints each shown): 63%; inhibition at 0.1 µM [3, 5]: 83%; inhibition at 0.1 µM [4, 6]: 69%
CN1CCc2c(c3cc(F)ccc3n2CCc2ccc(F)cc2)C1 [compound 219] |  |  |  |  |  | inhibition at 0.03 µM [2, 12]: 69%; inhibition at 0.03 µM ([4]; read-out: Percentage inhibition of ligand binding, Adrenergic α1D (0.03 μM), compound at 0.03 μM, [3H]Prazosin, repeat datapoints each shown): 3%

Further lines, with some results ahead:

inhibition at 0.03 µM [1, 7] | inhibition at 0.1 µM [1, 8] | Percentage inhibition of ligand binding, Adrenergic α1B [3, 9] | inhibition at 0.1 µM [3, 10] | inhibition at 0.1 µM [4, 11] | Structure (SMILES) | further results
84% | 91% | 6% | 5% | 10% | Cc1ccc2c(c1)c1c(n2C2=C(c3cn[nH]c3)CCC2)CCN(C)C1 [compound 77, 5-(2-(1H-pyrazol-4-yl)cyclopent-1-enyl)-2,8-dimethyl-2,3,4,5-tetrahydro-1H-pyrido[4,3-b]indole] | 
67% | 87% | 12% | 11% | 22% | C/C(=C\n1c2c(c3cc(C)cnc31)CN(C)CC2)c1ccc(C)nc1 [compound 78] | 
